Like-named read-outs stand apart in the source and are kept apart here.
What was measured:
PI3K-α (p110α/p85α) = target: T1, PI3K-α (p110α/p85α) (Homo sapiens, UniProt P42336); assay: Determination of PI3K kinase activity (ADP Transcreener fluorescence polarization), PI3K-α; assay type: biochemical; settings: compared with BKM-120
T1 construct: purchased Invitrogen PV4788
Experimental: The inhibition of PI3K kinase activity by the compound to be tested was determined by the following method. The working concentration of each component in the 25 μL enzyme reaction system was: p110α/p85α 3 ng (or p110β/p85α 60 ng, or p110δ/p85α 90 ng, or p110γ 100 ng), ATP 10 μM, PIP2: PS (Invitrogen PV5100) 30 μM and the DMSO concentration was 2% after addition of the compound to be tested.
The compound to be tested was gradiently diluted 3 times (0.00046-1 μM, 8 concentration points) with 10% DMSO. 5 μL of the compound to be tested was added to each well of a 96-well plate (Greiner 675076) in duplicate. […] 10 μL of ATP/PIP2: PS and 10 μL of the PI3K enzyme working solution were added to each well in a 96-well plate. The plate was shaken and mixed uniformly, and then incubated at 25° C. for 1 hour. […] After completion of the enzyme reaction, 25 μL of ADP assay solution (1% 100×ADP tracer, 0.79% ADP antibody and 10% 10× reaction stop solution) was added and incubated at 25° C. for 1 hour. Fluorescence polarization value [mP] of each well was measured with a Perkin Elmer Victor X5 Fluorescent Microplate. The ADP concentration [ADP] was calculated from the ADP/ATP standard curve and the IC50 values were calculated using the XLFit software.

NIH-3T3 cells = assay: Cytotoxicity in normal cell line NIH-3T3 (MTT assay); assay type: cell-based
Experimental: The MTT assay procedure and steps were carried out as well known to those skilled in the art, and all the reagents used in the methods were commercially available.
The cells in logarithmic growth phase were digested with 0.25% EDTA trypsin (Gibco, 25200-056) and resuspended in fresh medium. 90 μL of the cell suspension was inoculated into a 96-well cell culture plate (BD Faclon 353072) with a suitable cell density and cultured at 37° C. under 5% CO2. After the cells adhered, 10 μL of the test compound at different concentrations (0.0046-10 μM, 8 concentration points) was added and incubated for another 72 h. 10 μL of MTT (5 mg/mL PBS solution) (Sigma, M5655) was added to react for 4 h. The absorbance at 492 nm was measured by using Thermo Scientific Multiskan MK3 microplate reader and IC50 was calculated using XLFIT 5.0 software (UK IDBS).

[1] = Metabolism stability assay in liver microsomes; assay type: in vitro ADME, mouse; settings: liver microsomal metabolism in mice
Experimental: Buffer A: 1 L solution of 100 mM potassium dihydrogen phosphate containing 1 mM EDTA (Sigma, V900157-100G) was prepared. Buffer B: 1 L solution of 100 mM dipotassium hydrogen phosphate containing 1 mM EDTA was prepared. Buffer C: 700 mL of buffer B was taken out and titrated with buffer A to pH 7.4.
2.1 10 μl of 10 mM compound to be tested and 10 μl of 10 mM ketanserin were taken out and 190 μl of pure acetonitrile was added to each of them to prepare 500 μM compound to be tested and ketanserin, respectively.
2.2 20 μl (20 mg/mL) of liver microsomes (XENOTECH, H0610) stock solution was added to 513.4 μl of buffer C on wet ice. 0.75 mg/mL liver microsomal solution was obtained.
2.3 1.5 μl of each of the above-mentioned compound to be tested and ketanserin solution was added to 498.5 μl of liver microsomal solution (0.7 5 mg/mL) respectively on wet ice. 1.5 μM mixed solution of compound to be tested and 1.5 μM mixed solution of ketanserin were obtained. […]
2.10 The sample was diluted with pure water in accordance with the ratio of 1:1 and detected by LC/MS. […]
Wherein, the K value and the proportional factor were calculated by those skilled in the art according to the methods described in the prior art and contained in the instructions of the liver microsome product.

[2] = Solubility experiment in 0.1M HCl, buffers and water; assay type: physicochemical; settings: ambient temperature; for solubility at 30 min: thermodynamic from solid
Experimental: The solubilities of the following four kinds of salt and free base sample in 0.1M HCl, pH 4.5 buffer, pH 6.8 buffer, and water were tested at ambient temperature. In the test, the calibration curves of free base and four kinds of salt were plotted. 3 mg of solid samples of free base and four kinds of salt were weighed, respectively, and then 1 ml of the solvent was added, centrifuged after 30 min ultrasound. The supernatant was taken, and injected through the membrane, and the solubility was tested.

T1 sequence (P42336 whole entry): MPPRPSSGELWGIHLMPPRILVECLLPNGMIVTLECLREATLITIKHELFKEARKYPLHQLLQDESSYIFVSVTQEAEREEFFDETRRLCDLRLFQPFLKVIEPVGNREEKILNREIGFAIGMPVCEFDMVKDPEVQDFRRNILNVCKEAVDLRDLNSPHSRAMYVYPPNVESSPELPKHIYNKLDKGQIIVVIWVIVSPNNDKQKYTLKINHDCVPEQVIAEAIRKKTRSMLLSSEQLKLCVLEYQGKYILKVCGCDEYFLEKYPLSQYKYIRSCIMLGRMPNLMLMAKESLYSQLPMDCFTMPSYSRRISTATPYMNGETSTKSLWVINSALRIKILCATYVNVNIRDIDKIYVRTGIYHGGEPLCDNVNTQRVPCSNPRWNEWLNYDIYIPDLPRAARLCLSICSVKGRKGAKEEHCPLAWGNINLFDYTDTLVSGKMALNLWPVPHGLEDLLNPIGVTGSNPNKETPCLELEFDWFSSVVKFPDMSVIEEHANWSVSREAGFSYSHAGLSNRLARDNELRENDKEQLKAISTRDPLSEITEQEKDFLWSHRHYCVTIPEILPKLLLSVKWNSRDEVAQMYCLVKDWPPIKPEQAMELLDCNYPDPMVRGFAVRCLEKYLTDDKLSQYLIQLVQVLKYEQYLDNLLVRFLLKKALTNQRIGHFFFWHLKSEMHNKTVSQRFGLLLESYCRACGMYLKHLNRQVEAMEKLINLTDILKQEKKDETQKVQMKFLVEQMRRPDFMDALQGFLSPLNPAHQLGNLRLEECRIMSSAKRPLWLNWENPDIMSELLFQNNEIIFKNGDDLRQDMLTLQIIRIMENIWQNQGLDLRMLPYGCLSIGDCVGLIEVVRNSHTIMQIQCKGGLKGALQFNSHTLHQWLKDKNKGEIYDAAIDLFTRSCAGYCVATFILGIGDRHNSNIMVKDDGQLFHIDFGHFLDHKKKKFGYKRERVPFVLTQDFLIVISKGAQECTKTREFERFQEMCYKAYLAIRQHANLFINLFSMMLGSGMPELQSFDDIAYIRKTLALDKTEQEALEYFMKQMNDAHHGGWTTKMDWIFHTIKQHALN
T1 sequence (P27986 whole entry partner): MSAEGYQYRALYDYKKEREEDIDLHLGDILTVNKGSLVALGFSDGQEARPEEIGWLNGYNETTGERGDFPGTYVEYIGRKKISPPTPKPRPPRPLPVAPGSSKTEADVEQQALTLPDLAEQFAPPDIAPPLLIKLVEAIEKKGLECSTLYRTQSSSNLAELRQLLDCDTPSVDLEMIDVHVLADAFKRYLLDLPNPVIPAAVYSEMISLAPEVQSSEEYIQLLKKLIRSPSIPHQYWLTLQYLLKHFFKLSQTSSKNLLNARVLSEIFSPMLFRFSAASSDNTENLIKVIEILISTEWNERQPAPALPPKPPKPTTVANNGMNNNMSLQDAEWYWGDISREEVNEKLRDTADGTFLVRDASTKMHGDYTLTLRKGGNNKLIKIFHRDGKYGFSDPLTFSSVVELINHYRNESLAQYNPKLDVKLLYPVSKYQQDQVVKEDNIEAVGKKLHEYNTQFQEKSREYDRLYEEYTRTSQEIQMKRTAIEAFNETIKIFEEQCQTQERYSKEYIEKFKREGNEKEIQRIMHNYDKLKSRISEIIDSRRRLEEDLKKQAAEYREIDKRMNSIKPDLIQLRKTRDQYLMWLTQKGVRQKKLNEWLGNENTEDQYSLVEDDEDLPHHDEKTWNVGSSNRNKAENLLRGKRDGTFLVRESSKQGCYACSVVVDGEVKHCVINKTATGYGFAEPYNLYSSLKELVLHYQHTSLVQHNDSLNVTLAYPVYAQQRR

increase of inhibitory activity against PI3K-α kinase versus BKM-120 (PI3K-α (p110α/p85α)): about 10 times
Clearance [1]: 108.9 mL/min/kg
Solubility (mg/mL) 0.1M HCl ([2]; 0.1M HCl, listed as Free base): >2.973 mg/mL
solubility at 30 min ([2]; pH 4.5 buffer, pH 4.5, aqueous buffer, pH 4.5 buffer, read-out: Solubility (mg/mL) pH 4.5): 0.025 mg/mL
solubility at 30 min ([2]; pH 6.8 buffer, pH 6.8, aqueous buffer, pH 6.8 buffer, read-out: Solubility (mg/mL) pH 6.8): 0.015 mg/mL
Solubility (mg/mL) H2O ([2]; water, listed as Free base): 0.016 mg/mL
SMILES: CS(=O)(=O)C1(c2cc(-c3cnc(N)cc3Cl)nc(N3CCOCC3)n2)CC1 [Compound of formula X, 4-chloro-5-(6-(1-(methylsulfonyl)cyclopropyl)-2-morpholinopyrimidin-4-yl)pyridin-2-amine]
cytotoxicity in normal cell lines (NIH-3T3 cells): relatively low cytotoxicity

Source: patent publication US10544137B2, “PI3K inhibitor, and pharmaceutically acceptable salt, polycrystalline form, and application thereof” (SHANGHAI HAIYAN PHARMACEUTICAL TECHNOLOGY CO., LTD., priority 2016, dated 2020)
